Consider five compounds from patent US7105536B2, “Compounds” (SmithKline Beecham plc, priority 1999, dated 2006).

The test system of the experiment is male rats (Sprague Dawley). Description: Maximal electroshock seizure (MEST) threshold test, rat model. The format is in vivo. Particulars: 2 mg/kg p.o. at 2 h, suspended in 1% methyl cellulose. The procedure: The maximal electroshock seizure (MEST) threshold test in rodents is particularly sensitive for detecting potential anticonvulsant properties^1. In this model, anticonvulsant agents elevate the threshold to electrically-induced seizures whilst proconvulsants lower the seizure threshold.
The threshold for maximal (tonic hindlimb extension) electroshock seizures in male rats (Sprague Dawley, 80–150 g, 6 weeks old) was determined by a Hugo Sachs Electronik stimulator which delivered a constant current (0.3 sec duration; from 1–300 mA in steps of 5–20 mA). The procedure is similar to that outlined above for mouse and full details are as published by Upton et al,.^4
The percentage increase or decrease in CC50 for each group compared to the control is calculated. Drugs are suspended in 1% methyl cellulose.
In general terms: In the maximal electroshock model the usual endpoint is tonic extension of the hind limbs.

SMILES strings stand for the structures.

With `CCOc1ccc(C(=O)Nc2cc(Cl)c3c(c2)CNCC3)cc1Cl` [Example 2, N-(5-Chloro-1,2,3,4-tetrahydroisoquinolin-7-yl)-3-chloro-4-ethoxy benzamide], the “percentage increase in CC50 compared to the control” value (from here on “percentage increase in CC50”) was 390%.
Take `CC(C)c1ccc(C(=O)Nc2cc(Cl)c3c(c2)CNCC3)cc1C#N` [Example 3, N-(5-Chloro-1,2,3,4-tetrahydroisoquinolin-7-yl)-3-cyano-4-iso-propyl benzamide]: the “percentage increase in CC50” value worked out at 140%.
For `COc1ccc(C(=O)Nc2cc(Cl)c3c(c2)CNCC3)cc1C#N` [Example 5, N-(5-Chloro-1,2,3,4-tetrahydroisoquinolin-7-yl)-3-cyano-4-methoxybenzamide], the “percentage increase in CC50” value amounted to 210%.
Consider `CCOc1ccc(C(=O)Nc2cc(Cl)c3c(c2)CNCC3)cc1Br` [Example 7, N-(5-Chloro-1,2,3,4-tetrahydroisoquinolin-7-yl)-3-bromo-4-ethoxybenzamide], for which the “percentage increase in CC50” value is listed as 410%.
For `CC(=O)c1cc(C(=O)Nc2cc(Cl)c3c(c2)CNCC3)ccc1OC(C)C` [Example 8, N-(5-Chloro-1,2,3,4-tetrahydroisoquinolin-7-yl)-3-acetyl-4-iso-propoxybenzamide], the “percentage increase in CC50” value amounted to 114%.
